Results on one molecule are retold here after US20220370534A1, “EXTERNAL COMPOSITION FOR SKIN HAVING ITCHING RELIEVING EFFECT” (YANGSHENGTANG (ANJI) COSMETICS CO., LTD., priority 2019, published 2022).

The subject of this test is mast cells. Nature of the test: Release of interleukin-4 (IL-4) from mast cells stimulated with Compound 48/80. The class given is cell-based. The settings on record: sample 4 h, then Compound 48/80 20 mg/L 2 h, 8 duplicate wells, model group 67.6 ± 9.9, control group 34.4 ± 7.9. How it is done:
According to the following test method, the effects of the […] samples A-E as prepared above on the release of IL-4 from mast cells were tested.
Experimental principle: The specific antigen is crosslinked with the IgE antibody bound to the cell membrane, resulting in cell activation and rapid secretion of inflammatory mediators related to granulation (histamine, IL-4, IL-13, etc.). […] In this study, Compound 48/80 was used to stimulate mast cells to degranulate and release the inflammatory mediator IL-4 to investigate the protective efficacy of the test samples on the allergic reaction of mast cells.
Experimental materials: Mast cells were provided by the Animal Center of Zhejiang Academy of Medical Sciences. […]
Experimental method: Each of samples was prepared using RPMI1640 medium, and each of samples was provided with 8 duplicate wells. Mast cells were inoculated into a 96-well culture plate at a density of 5×10^6/mL, 90 μL per well, and added with 10 μL/well of a corresponding sample; cultured in a 5% CO2 incubator at 37° C., and taken out after 4 h; in addition to the control group, the other groups were added with a stimulus 48/80 (final concentration 20 mg/L), and continued to incubate in an incubator at 37° C. for 2 h, and then centrifuged at 1500 rpm for 5 mins to get the supernatant, and the content of IL-4 in the supernatant was detected by Elisa (interleukin-4) kit.

On to `O=C(O)c1cc(=O)c2c(OCC(O)COc3cccc4oc(C(=O)O)cc(=O)c34)cccc2o1` [Positive drug, sodium cromoglycate], for which the “Release % (IL-4 release from cell models)” value was 44.2 ± 12.3%.
